In article PMC9603373 (Microbiology Spectrum, 2022):

Test: Single-dose pharmacokinetics in healthy rats
Conditions: for auc / cmax: rounded mean of the PK study, repeated per rat; for AUC0–24: healthy male Wistar rats, UHPLC-ESI-MS/MS, mean (SD), n = 3, SD; for AUC0–24 / conc: plasma
Method: The experiments were performed in triplicate. […] Plasma was collected via centrifugation, and the samples were stored at −80°C until analysis.
All of the UHPLC-ESI-MS/MS analyses were performed using an Agilent 1290 UHPLC system coupled with an Agilent 6460 triple quadrupole mass spectrometer (Agilent Technologies, Santa Clara, CA, USA).

CCCCCCCCCC(=O)N[C@@H](Cc1c[nH]c2ccccc12)C(=O)N[C@H](CC(N)=O)C(=O)N[C@@H](CC(=O)O)C(=O)N[C@@H]1C(=O)NCC(=O)N[C@@H](CCCN)C(=O)N[C@@H](CC(=O)O)C(=O)N[C@H](C)C(=O)N[C@@H](CC(=O)O)C(=O)NCC(=O)N[C@H](CO)C(=O)N[C@@H]([C@H](C)CC(=O)O)C(=O)N[C@@H](CC(=O)c2ccccc2N)C(=O)O[C@@H]1C [daptomycin, Daptomycin]
auc (12 mg/kg iv): 228
cmax (12 mg/kg iv): 106
auc (45 mg/kg sc): 987
cmax (45 mg/kg sc): 123
auc (90 mg/kg sc): 2054
cmax (90 mg/kg sc): 179
AUC0–24 (single dose 12 mg/kg i.v.): 228.2 (15.7) mg × h/L
AUC0–24 (single dose 45 mg/kg s.c.): 986.7 (185.6) mg × h/L
AUC0–24 (single dose 90 mg/kg s.c.): 2,053.6 (352.3) mg × h/L
conc (single dose 12 mg/kg i.v., time 0 h, rat id 1): 71
conc (single dose 12 mg/kg i.v., time 0 h, rat id 2): 76
conc (single dose 12 mg/kg i.v., time 0 h, rat id 3): 171
conc (single dose 12 mg/kg i.v., time 0.5 h, rat id 1): 45
conc (single dose 12 mg/kg i.v., time 0.5 h, rat id 2): 4
conc (single dose 12 mg/kg i.v., time 0.5 h, rat id 3): 19
conc (single dose 12 mg/kg i.v., time 1 h, rat id 1): 70
conc (single dose 12 mg/kg i.v., time 1 h, rat id 2): 77
conc (single dose 12 mg/kg i.v., time 1 h, rat id 3): 81
conc (single dose 12 mg/kg i.v., time 2 h, rat id 1): 47
conc (single dose 12 mg/kg i.v., time 2 h, rat id 2): 41
conc (single dose 12 mg/kg i.v., time 2 h, rat id 3): 50
conc (single dose 12 mg/kg i.v., time 3 h, rat id 1): 31
conc (single dose 12 mg/kg i.v., time 3 h, rat id 2): 25
conc (single dose 12 mg/kg i.v., time 3 h, rat id 3): 27
conc (single dose 12 mg/kg i.v., time 4 h, rat id 1): 21
conc (single dose 12 mg/kg i.v., time 4 h, rat id 2): 21
conc (single dose 12 mg/kg i.v., time 4 h, rat id 3): 21
conc (single dose 12 mg/kg i.v., time 5 h, rat id 1): 10
conc (single dose 12 mg/kg i.v., time 5 h, rat id 2): 22
conc (single dose 12 mg/kg i.v., time 5 h, rat id 3): 12
conc (single dose 12 mg/kg i.v., time 8 h, rat id 1): 7
conc (single dose 12 mg/kg i.v., time 8 h, rat id 2): 3.76
conc (single dose 12 mg/kg i.v., time 8 h, rat id 3): 2.45
conc (single dose 12 mg/kg i.v., time 12 h, rat id 1): 1.45
conc (single dose 12 mg/kg i.v., time 12 h, rat id 2): 0
conc (single dose 12 mg/kg i.v., time 12 h, rat id 3): 1.2
conc (single dose 12 mg/kg i.v., time 24 h, rat id 1): 0
conc (single dose 12 mg/kg i.v., time 24 h, rat id 2): 0
conc (single dose 12 mg/kg i.v., time 24 h, rat id 3): 0
conc (single dose 45 mg/kg s.c., time 0 h, rat id 1): 4
conc (single dose 45 mg/kg s.c., time 0 h, rat id 2): 3.71
conc (single dose 45 mg/kg s.c., time 0 h, rat id 3): 2
conc (single dose 45 mg/kg s.c., time 0.5 h, rat id 1): 16
conc (single dose 45 mg/kg s.c., time 0.5 h, rat id 2): 19
conc (single dose 45 mg/kg s.c., time 0.5 h, rat id 3): 26
conc (single dose 45 mg/kg s.c., time 1 h, rat id 1): 55
conc (single dose 45 mg/kg s.c., time 1 h, rat id 2): 40
conc (single dose 45 mg/kg s.c., time 1 h, rat id 3): 44
conc (single dose 45 mg/kg s.c., time 2 h, rat id 1): 98
conc (single dose 45 mg/kg s.c., time 2 h, rat id 2): 64
conc (single dose 45 mg/kg s.c., time 2 h, rat id 3): 72
conc (single dose 45 mg/kg s.c., time 3 h, rat id 1): 82
conc (single dose 45 mg/kg s.c., time 3 h, rat id 2): 109
conc (single dose 45 mg/kg s.c., time 3 h, rat id 3): 142
conc (single dose 45 mg/kg s.c., time 4 h, rat id 1): 117
conc (single dose 45 mg/kg s.c., time 4 h, rat id 2): 89
conc (single dose 45 mg/kg s.c., time 4 h, rat id 3): 106
conc (single dose 45 mg/kg s.c., time 5 h, rat id 1): 93
conc (single dose 45 mg/kg s.c., time 5 h, rat id 2): 95
conc (single dose 45 mg/kg s.c., time 5 h, rat id 3): 84
conc (single dose 45 mg/kg s.c., time 8 h, rat id 1): 63
conc (single dose 45 mg/kg s.c., time 8 h, rat id 2): 68
conc (single dose 45 mg/kg s.c., time 8 h, rat id 3): 88
conc (single dose 45 mg/kg s.c., time 12 h, rat id 1): 52
conc (single dose 45 mg/kg s.c., time 12 h, rat id 2): 37
conc (single dose 45 mg/kg s.c., time 12 h, rat id 3): 29
conc (single dose 45 mg/kg s.c., time 24 h, rat id 1): 0.82
conc (single dose 45 mg/kg s.c., time 24 h, rat id 2): 0
conc (single dose 45 mg/kg s.c., time 24 h, rat id 3): 0.52
conc (single dose 90 mg/kg s.c., time 0 h, rat id 1): 5
conc (single dose 90 mg/kg s.c., time 0 h, rat id 2): 7
conc (single dose 90 mg/kg s.c., time 0 h, rat id 3): 4
conc (single dose 90 mg/kg s.c., time 0.5 h, rat id 1): 53
conc (single dose 90 mg/kg s.c., time 0.5 h, rat id 2): 42
